Source: patent US8440628B2, “Medical compositions containing ghrelin” (Daiichi Sankyo Company, Limited, priority 2002, dated 2013)

Key:
Type in all cases: physicochemical
[1] = Stability of human ghrelin in 0.1M HCl and Mcllvain buffer solutions of various pH at 25°C (Example 2, HPLC peak area ratio)
Experimental: Human ghrelin was dissolved in the following aqueous solutions in the concentration of about 0.15 μmol/mL (0.5 mg/mL).
0.1M HCl aqueous solution (pH: 1.1)
The pH was adjusted with 0.1M citric aqueous acid and 0.2M dibasic sodium phosphate aqueous solution.
Each solution were stored at 25±2° C. for 8, 24, 48 and 72 hours respectively, and the obtained solutions were detected by HPLC analysis in comparison to the solutions before storage. […] No significant changes of pH in solution before storage and after storage were observed.

[2] = Stability of human ghrelin in pH-adjusted purified water at 25°C (Example 7); conditions: for Peak area ratio to total peak area: 25±2°C
Experimental: Human ghrelin was dissolved in the purified water with about 0.03 μmol/mL (0.1 mg/mL). […] This solution was divided into quarter, and one portion was kept alone and the pH values of the remaining three portions were adjusted to pH 1.8 (with 17 mM of hydrochloric acid), pH 3.9 (with 0.20 mM of hydrochloric acid) and pH 7.8 (with 0.24 mM of sodium hydroxide) respectively, by adding along with hydrochloric acid or sodium hydroxide aqueous solution.

[3] = Stability of human ghrelin in Britton-Robinson buffer solutions of various pH at 40°C (Example 3); conditions: pH range of 2 to 7, stored at 40° C. for 1 day (FIG. 3)
Experimental: Human ghrelin, which is one of the ghrelins, was dissolved in the Britton-Robinson buffer solutions which is adjusted by combining 0.04M phosphoric acid-acetic acid-boric acid aqueous solution and 0.2M sodium hydrate aqueous solution in appropriate ratio, having pH of 2.1, 3.1, 4.0, 5.0, 6.0, 7.0 and 7.9 to obtain an aqueous solution containing human ghrelin in the concentration of about 0.15 μmol/mL (0.5 mg/mL). The obtained solution was filled in brownish glass ampoules and the ampoules were sealed with fire. For the calculation of kinetic constant, the certain degrees of degradation products have to be occurred in the aqueous solution of the ghrelins, and therefore, the ampoules were stored at 40±1° C., which was severe conditions for storage. The concentration (residual ratio) of human ghrelin was conducted by HPLC with time. At the same time, the pH of the solution was measured and it was confirmed that there was no significant changes of pH in solution.
The kinetic constants in each pH solution were calculated from the sequential change of the residual ratio, and the results were shown in FIG. 2.

With “[3-Dehydroalanine]human ghrelin [Dha compound]” the “Production of the degradation product in human ghrelin solution” value (“Production of the degradation product” below) ([1]; Mcllvain buffer, pH range of 3.0 to 5.0, 25±2°C, up to 72 hours) was “inhibited”, the “Peak area ratio to total peak area” value ([1]; human ghrelin 0.5 mg/mL in 0.1M HCl aqueous solution, pH 1, 25±2°C, 8 hr. after) was 0.15% and the “Peak area ratio to total peak area” value ([1]; human ghrelin 0.5 mg/mL in 0.1M HCl aqueous solution, pH 1, 25±2°C, 24 hr. after) was 0.09%. For the same substance, the “Peak area ratio to total peak area” value ([1]; human ghrelin 0.5 mg/mL in 0.1M HCl aqueous solution, pH 1, 25±2°C, 48 hr. after) was 0.04%, the “Peak area ratio to total peak area” value ([1]; human ghrelin 0.5 mg/mL in 0.1M HCl aqueous solution, pH 1, 25±2°C, 72 hr. after) was 0.00% and the “Peak area ratio to total peak area” value ([1]; human ghrelin 0.5 mg/mL in 0.1M HCl aqueous solution, pH 1, 25±2°C, before storage) was 0.21%. The “Peak area ratio to total peak area” value ([1]; human ghrelin 0.5 mg/mL in Mcllvain buffer, pH 2, 25±2°C, 8 hr. after) was 0.20%, the “Peak area ratio to total peak area” value ([1]; human ghrelin 0.5 mg/mL in Mcllvain buffer, pH 2, 25±2°C, 24 hr. after) was 0.23% and the “Peak area ratio to total peak area” value ([1]; human ghrelin 0.5 mg/mL in Mcllvain buffer, pH 2, 25±2°C, 48 hr. after) was 0.24%. The “Peak area ratio to total peak area” value ([1]; human ghrelin 0.5 mg/mL in Mcllvain buffer, pH 2, 25±2°C, 72 hr. after) was 0.25%, the “Peak area ratio to total peak area” value ([1]; human ghrelin 0.5 mg/mL in Mcllvain buffer, pH 2, 25±2°C, before storage) was 0.20% and the “Peak area ratio to total peak area” value ([1]; human ghrelin 0.5 mg/mL in Mcllvain buffer, pH 3, 25±2°C, 8 hr. after) was 0.20%. The “Peak area ratio to total peak area” value ([1]; human ghrelin 0.5 mg/mL in Mcllvain buffer, pH 3, 25±2°C, 24 hr. after) was 0.23%, the “Peak area ratio to total peak area” value ([1]; human ghrelin 0.5 mg/mL in Mcllvain buffer, pH 3, 25±2°C, 48 hr. after) was 0.24% and the “Peak area ratio to total peak area” value ([1]; human ghrelin 0.5 mg/mL in Mcllvain buffer, pH 3, 25±2°C, 72 hr. after) was 0.25%. For the same substance, the “Peak area ratio to total peak area” value ([1]; human ghrelin 0.5 mg/mL in Mcllvain buffer, pH 3, 25±2°C, before storage) was 0.20%, the “Peak area ratio to total peak area” value ([1]; human ghrelin 0.5 mg/mL in Mcllvain buffer, pH 4, 25±2°C, 8 hr. after) was 0.20% and the “Peak area ratio to total peak area” value ([1]; human ghrelin 0.5 mg/mL in Mcllvain buffer, pH 4, 25±2°C, 24 hr. after) was 0.21%. The “Peak area ratio to total peak area” value ([1]; human ghrelin 0.5 mg/mL in Mcllvain buffer, pH 4, 25±2°C, 48 hr. after) was 0.22%, the “Peak area ratio to total peak area” value ([1]; human ghrelin 0.5 mg/mL in Mcllvain buffer, pH 4, 25±2°C, 72 hr. after) was 0.23% and the “Peak area ratio to total peak area” value ([1]; human ghrelin 0.5 mg/mL in Mcllvain buffer, pH 4, 25±2°C, before storage) was 0.20%. For the same substance, the “Peak area ratio to total peak area” value ([1]; human ghrelin 0.5 mg/mL in Mcllvain buffer, pH 5, 25±2°C, 8 hr. after) was 0.21%, the “Peak area ratio to total peak area” value ([1]; human ghrelin 0.5 mg/mL in Mcllvain buffer, pH 5, 25±2°C, 24 hr. after) was 0.21% and the “Peak area ratio to total peak area” value ([1]; human ghrelin 0.5 mg/mL in Mcllvain buffer, pH 5, 25±2°C, 48 hr. after) was 0.23%. For the same substance, the “Peak area ratio to total peak area” value ([1]; human ghrelin 0.5 mg/mL in Mcllvain buffer, pH 5, 25±2°C, 72 hr. after) was 0.24%, the “Peak area ratio to total peak area” value ([1]; human ghrelin 0.5 mg/mL in Mcllvain buffer, pH 5, 25±2°C, before storage) was 0.21% and the “Peak area ratio to total peak area” value ([1]; human ghrelin 0.5 mg/mL in Mcllvain buffer, pH 6, 25±2°C, 8 hr. after) was 0.21%. For the same substance, the “Peak area ratio to total peak area” value ([1]; human ghrelin 0.5 mg/mL in Mcllvain buffer, pH 6, 25±2°C, 24 hr. after) was 0.26%, the “Peak area ratio to total peak area” value ([1]; human ghrelin 0.5 mg/mL in Mcllvain buffer, pH 6, 25±2°C, 48 hr. after) was 0.31% and the “Peak area ratio to total peak area” value ([1]; human ghrelin 0.5 mg/mL in Mcllvain buffer, pH 6, 25±2°C, 72 hr. after) was 0.35%. The “Peak area ratio to total peak area” value ([1]; human ghrelin 0.5 mg/mL in Mcllvain buffer, pH 6, 25±2°C, before storage) was 0.20%, the “Peak area ratio to total peak area” value ([1]; human ghrelin 0.5 mg/mL in Mcllvain buffer, pH 7, 25±2°C, 8 hr. after) was 0.25% and the “Peak area ratio to total peak area” value ([1]; human ghrelin 0.5 mg/mL in Mcllvain buffer, pH 7, 25±2°C, 24 hr. after) was 0.43%. The “Peak area ratio to total peak area” value ([1]; human ghrelin 0.5 mg/mL in Mcllvain buffer, pH 7, 25±2°C, 48 hr. after) was 0.61%, the “Peak area ratio to total peak area” value ([1]; human ghrelin 0.5 mg/mL in Mcllvain buffer, pH 7, 25±2°C, 72 hr. after) was 0.79% and the “Peak area ratio to total peak area” value ([1]; human ghrelin 0.5 mg/mL in Mcllvain buffer, pH 7, 25±2°C, before storage) was 0.22%. For the same substance, the “Peak area ratio to total peak area” value ([1]; human ghrelin 0.5 mg/mL in Mcllvain buffer, pH 8, 25±2°C, 8 hr. after) was 0.68%, the “Peak area ratio to total peak area” value ([1]; human ghrelin 0.5 mg/mL in Mcllvain buffer, pH 8, 25±2°C, 24 hr. after) was 1.39% and the “Peak area ratio to total peak area” value ([1]; human ghrelin 0.5 mg/mL in Mcllvain buffer, pH 8, 25±2°C, 48 hr. after) was 2.39%. For the same substance, the “Peak area ratio to total peak area” value ([1]; human ghrelin 0.5 mg/mL in Mcllvain buffer, pH 8, 25±2°C, 72 hr. after) was 3.12%, the “Peak area ratio to total peak area” value ([1]; human ghrelin 0.5 mg/mL in Mcllvain buffer, pH 8, 25±2°C, before storage) was 0.24% and the “Production of the degradation product” value ([2]; aqueous solution of pH 3.9 and 4.7, 25±2°C, up to 3 days) was “inhibited”. For the same substance, the “Peak area ratio to total peak area” value ([2]; human ghrelin 0.1 mg/mL in purified water adjusted to pH 1.8 with hydrochloric acid, 1 day after) was 0.31%, the “Peak area ratio to total peak area” value ([2]; human ghrelin 0.1 mg/mL in purified water adjusted to pH 1.8 with hydrochloric acid, before storage) was 0.20% and the “Peak area ratio to total peak area” value ([2]; human ghrelin 0.1 mg/mL in purified water adjusted to pH 3.9 with hydrochloric acid, 1 day after) was 0.20%. For the same substance, the “Peak area ratio to total peak area” value ([2]; human ghrelin 0.1 mg/mL in purified water adjusted to pH 3.9 with hydrochloric acid, 3 days after) was 0.19%, the “Peak area ratio to total peak area” value ([2]; human ghrelin 0.1 mg/mL in purified water adjusted to pH 3.9 with hydrochloric acid, before storage) was 0.20% and the “Peak area ratio to total peak area” value ([2]; human ghrelin 0.1 mg/mL in purified water adjusted to pH 7.8 with sodium hydroxide, 1 day after) was 0.86%. The “Peak area ratio to total peak area” value ([2]; human ghrelin 0.1 mg/mL in purified water adjusted to pH 7.8 with sodium hydroxide, before storage) was 0.24%, the “Peak area ratio to total peak area” value ([2]; human ghrelin 0.1 mg/mL in purified water, pH 4.7 (not adjusted), 1 day after) was 0.21% and the “Peak area ratio to total peak area” value ([2]; human ghrelin 0.1 mg/mL in purified water, pH 4.7 (not adjusted), 3 days after) was 0.21%. For the same substance, the “Peak area ratio to total peak area” value ([2]; human ghrelin 0.1 mg/mL in purified water, pH 4.7 (not adjusted), before storage) was 0.20% and the “Production of the degradation product” value [3] was “inhibited”.
